Test results from US4689339A, “4-dihydroinden-2-yl-, 4-tetrahydronaphth-2-yl-, and 4-dihydrobenzofuran-2-ylimidazoles, useful to block α2 -adrenergic receptors” (Farmos Yhtyma oy, priority 1984, dated 1987).
Like-named read-outs stand apart in the source and are kept apart here.

What was measured:
[1] = biological target: T1, α2-receptors (Mus musculus, UniProt Q01338); assay: α2-antagonism in vitro, isolated electrically stimulated mouse vas deferens (vs detomidine); format: biochemical
T1 construct: isolated, electrically stimulated mouse vas deferens preparation; from tissue; host or cells: mouse vas deferens
T1 sequence (Q01338 1-465): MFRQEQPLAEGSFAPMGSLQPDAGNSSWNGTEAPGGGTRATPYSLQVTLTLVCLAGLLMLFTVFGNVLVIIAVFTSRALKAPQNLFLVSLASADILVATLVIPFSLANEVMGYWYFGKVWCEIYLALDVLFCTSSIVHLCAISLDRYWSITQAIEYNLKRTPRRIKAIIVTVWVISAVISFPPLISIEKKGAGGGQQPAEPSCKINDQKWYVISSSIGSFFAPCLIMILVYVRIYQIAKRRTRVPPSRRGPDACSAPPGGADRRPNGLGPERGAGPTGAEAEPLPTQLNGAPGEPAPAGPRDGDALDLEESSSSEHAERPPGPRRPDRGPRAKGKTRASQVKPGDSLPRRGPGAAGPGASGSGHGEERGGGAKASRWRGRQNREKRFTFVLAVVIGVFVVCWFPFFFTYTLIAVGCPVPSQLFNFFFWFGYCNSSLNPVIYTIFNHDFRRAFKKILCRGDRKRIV
Procedure: α2 -antagonism was determined by means of isolated, electrically stimulated mouse vas deferens preparation (Marshall et al., Br. J. Pharmac. 62, 147, 151, 1978). In this model, α2 -agonist (detomidine) blocks electrically stimulated muscular contractions and the effect of the α2 -antagonist is seen by administering it prior to the agonist and by determining its pA2 value. Known α2 -antagonists like yohimbine and rauwolscine were used as reference substances.

[2] = biological target: α1-receptors; assay: α1-agonism in vitro, isolated anococcygeus muscle (rat); format: biochemical; details: negative logarithm of the molar concentration producing 50 percent of maximal contraction
Procedure: (§1) To obtain information also on the selectivity of the antagonist between α1 - and α2 -receptors, its ability to inhibit or stimulate α1 -receptors was determined by means of isolated anococcygeus muscle (rat). […] To determine α-antagonism, muscular contraction was induced by phenylephrine and the pA2 value of the studied compound was determined as above. α1 -agonist effect is presented as the pD2 value (negative logarithm of the molar concentration of the compound producing 50 percent of maximal contraction).

[3] = biological target: T2, α2-receptors of the central nervous system (Rattus norvegicus, UniProt P22909); assay: α2-antagonism in vivo, reversal of detomidine-induced mydriasis in anaesthetized rat; details: iv
T2 construct: In anaesthetized rat, a standard dose of detomidine was administered intravenously; from tissue; host or cells: whole anaesthetized rat, in vivo (central nervous system)
T2 sequence (P22909 1-465): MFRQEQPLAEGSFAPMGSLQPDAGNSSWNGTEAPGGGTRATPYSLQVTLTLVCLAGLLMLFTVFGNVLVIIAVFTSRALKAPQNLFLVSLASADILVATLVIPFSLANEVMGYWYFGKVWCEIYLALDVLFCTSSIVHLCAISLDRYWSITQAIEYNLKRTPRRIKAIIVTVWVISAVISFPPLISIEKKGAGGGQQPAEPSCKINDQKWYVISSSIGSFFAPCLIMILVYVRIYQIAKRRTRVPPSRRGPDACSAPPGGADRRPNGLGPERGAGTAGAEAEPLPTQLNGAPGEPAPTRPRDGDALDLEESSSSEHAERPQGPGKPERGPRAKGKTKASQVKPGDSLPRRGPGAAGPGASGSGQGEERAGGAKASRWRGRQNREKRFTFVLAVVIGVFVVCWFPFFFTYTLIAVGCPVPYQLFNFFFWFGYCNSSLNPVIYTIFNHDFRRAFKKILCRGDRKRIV
Procedure: The central α2 -blocking effect of the studied substances under in vivo conditions was studied using two methods. First, it is known that in the rat α2 -agonists induce dilatation of the pupil (mydriasis) which effect is transmitted via α2 -receptors of the central nervous system. In anaesthetized rat, a standard dose of detomidine was administered intravenously. Thereafter increasing doses of the studied antagonist were injected intravenously and the reversal of detomidine-induced mydriasis was followed. The ED50 value of the antagonist, i.e. the dose producing a 50 percent reversal, was determined.

[4] = tested on: α2-receptor; assay: α2-antagonism in the central nervous system, inhibition of detomidine induced potentiation of barbiturate sleeping time in mice; format: in vivo, mouse; details: detomidine 150 μg/kg ip
Excerpt: α2 -antagonism in the central nervous system was secondly studied by following the ability of the antagonist to inhibit detomidine induced sedation in the mouse. This was done by measuring the increase of barbiturate sleeping time induced by detomidine. This effect of detomidine is known to be induced through α2 -receptor activation. The antagonist can be studied by administering it prior to detomidine.

[5] = biological target: α1-receptors; assay: α1-antagonism in vitro, isolated anococcygeus muscle (rat), contraction induced by phenylephrine; format: biochemical
Procedure: as §1

[6] = antagonist given prior to detomidine, read-out: α2-antagonism (pA2 vs detomidine) mouse vas deferens (converted)

| Structure (SMILES) | α1-agonism (pD2) rat anococcygeus [2] | ED50, 50 percent reversal of detomidine-induced mydriasis ([3]; rat, in vivo) [mg/kg] | Kb [1] [nM] | also measured |
| --- | --- | --- | --- | --- |
| Brc1ccc2c(c1)CC(c1cnc[nH]1)O2 (centres unmarked) [Compound III] | 4.5 | 0.32 | – | Kb [1, 6]: 631 nM |
| c1ccc2c(c1)CC(c1cnc[nH]1)O2 (centres unmarked) [Compound II] | 5.5 | 0.07 | 31.6 | Effect on detomidine induced potentiation of the barbiturate sleeping time (± percent of controls) ([4]; dose 0.1 mg/kg): -5% of controls; Effect on detomidine induced potentiation of the barbiturate sleeping time (± percent of controls) ([4]; dose 0.3 mg/kg): -30% of controls; Effect on detomidine induced potentiation of the barbiturate sleeping time (± percent of controls) ([4]; dose 1 mg/kg): -60% of controls; Effect on detomidine induced potentiation of the barbiturate sleeping time (± percent of controls) ([4]; dose 3 mg/kg): -70% of controls; Effect on detomidine induced potentiation of the barbiturate sleeping time (± percent of controls) ([4]; dose 10 mg/kg): -85% of controls |
| Cc1ccc2c(c1)CC(c1cnc[nH]1)C2 (centres unmarked) [Compound IV] | 6.5 | 0.02 | 20 | – |
| c1ccc2c(c1)CC(c1cnc[nH]1)C2 [Compound I] | 6.5 | 0.003 | 1.58 | Effect on detomidine induced potentiation of the barbiturate sleeping time (± percent of controls) ([4]; dose 0.1 mg/kg): -20% of controls; Effect on detomidine induced potentiation of the barbiturate sleeping time (± percent of controls) ([4]; dose 0.3 mg/kg): -60% of controls; Effect on detomidine induced potentiation of the barbiturate sleeping time (± percent of controls) ([4]; dose 1 mg/kg): -100% of controls |
| Cc1ccc2c(c1)C(C)C(c1cnc[nH]1)C2 (centres unmarked) [Compound VIII] | – | 0.1 | 25.1 | α1-antagonism (pA2 vs phenylephrine) rat anococcygeus [5]: 5.9 |
| Cc1cccc2c1CC(c1cnc[nH]1)C2C (centres unmarked) [Compound VII] | 6.0 | 0.1 | 25.1 | – |
| CC1c2ccccc2CC1c1cnc[nH]1 (centres unmarked) [Compound VI] | 6.5 | 0.1 | 2 | – |
| CC1(c2cnc[nH]2)Cc2ccccc2C1 [Compound XII] | 5.5 | 0.003 | – | Kb [1, 6]: 7.94 nM |
| c1ccc2c(c1)CCC(c1cnc[nH]1)C2 (centres unmarked) [Compound XVIII] | 6.0 | – | 20 | – |
| CCC1(c2cnc[nH]2)Cc2ccc(C)cc2C1 (centres unmarked) [Compound XVII] | – | – | – | Kb [1, 6]: 251 nM |
| CCC1(c2cnc[nH]2)Cc2ccccc2C1 [Compound XV] | – | – | 5.01 | – |
| Cc1ccc(N(CC2=NCCN2)c2cccc(O)c2)cc1 [Phentolamine, reference compound] | – | – | – | ED50, 50 percent reversal of detomidine-induced mydriasis ([3]; anaesthetized rat, standard iv dose of detomidine): 1 mg/kg |
| CNC[C@H](O)c1cccc(O)c1 [Phenylephrine, reference compound] | 6.5 | – | – | – |
| COc1cc2nc(N3CCN(C(=O)c4ccco4)CC3)nc(N)c2cc1OC [Prazosin] | – | – | – | Effect on detomidine induced potentiation of the barbiturate sleeping time (± percent of controls) ([4]; dose 0.1 mg/kg): 0% of controls; Effect on detomidine induced potentiation of the barbiturate sleeping time (± percent of controls) ([4]; dose 0.3 mg/kg): 0% of controls; Effect on detomidine induced potentiation of the barbiturate sleeping time (± percent of controls) ([4]; dose 1 mg/kg): 0% of controls; Effect on detomidine induced potentiation of the barbiturate sleeping time (± percent of controls) ([4]; dose 3 mg/kg): +16% of controls; Effect on detomidine induced potentiation of the barbiturate sleeping time (± percent of controls) ([4]; dose 10 mg/kg): +18% of controls |
| COC(=O)[C@H]1[C@H]2C[C@H]3c4[nH]c5ccccc5c4CCN3C[C@H]2CC[C@@H]1O [Rauwolscine, reference compound] | – | – | 7.94 | α1-antagonism (pA2 vs phenylephrine) rat anococcygeus [5]: 6.3 |
| COC(=O)[C@@H]1[C@H]2C[C@H]3c4[nH]c5ccccc5c4CCN3C[C@@H]2CC[C@@H]1O [Yohimbine] | – | 0.2 | 7.94 | α1-antagonism (pA2 vs phenylephrine) rat anococcygeus [5]: 6.6; Effect on detomidine induced potentiation of the barbiturate sleeping time (± percent of controls) ([4]; dose 0.1 mg/kg): 0% of controls; Effect on detomidine induced potentiation of the barbiturate sleeping time (± percent of controls) ([4]; dose 0.3 mg/kg): -18% of controls; Effect on detomidine induced potentiation of the barbiturate sleeping time (± percent of controls) ([4]; dose 1 mg/kg): -64% of controls; Effect on detomidine induced potentiation of the barbiturate sleeping time (± percent of controls) ([4]; dose 3 mg/kg): -70% of controls; Effect on detomidine induced potentiation of the barbiturate sleeping time (± percent of controls) ([4]; dose 10 mg/kg): -100% of controls |
